As usually defined, the EC50 is the concentration needed to bring the measured effect to its halfway point.

Assay [1] deals with T1, Peroxisome proliferator-activated receptor alpha (Homo sapiens) (UniProt Q07869).
T1 sequence (whole entry): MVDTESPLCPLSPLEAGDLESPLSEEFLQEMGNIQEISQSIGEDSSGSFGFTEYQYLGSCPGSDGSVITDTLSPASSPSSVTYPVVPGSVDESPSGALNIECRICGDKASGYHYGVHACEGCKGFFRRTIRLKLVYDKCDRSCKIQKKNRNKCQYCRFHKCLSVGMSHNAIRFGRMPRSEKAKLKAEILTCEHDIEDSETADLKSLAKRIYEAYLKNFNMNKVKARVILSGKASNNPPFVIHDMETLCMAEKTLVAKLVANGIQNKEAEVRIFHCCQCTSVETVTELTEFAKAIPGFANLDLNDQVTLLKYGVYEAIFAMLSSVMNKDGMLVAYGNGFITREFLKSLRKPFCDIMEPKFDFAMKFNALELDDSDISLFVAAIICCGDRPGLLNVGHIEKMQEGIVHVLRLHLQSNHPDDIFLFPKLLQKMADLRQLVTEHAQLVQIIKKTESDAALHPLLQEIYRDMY
The assay can be described thus: Agonist activity at human PPARalpha by transactivation assay relative to NNC61-4655. In kind it is functional.

The target of assay [2] is T2, Peroxisome proliferator-activated receptor delta (Homo sapiens, UniProt Q03181).
T2 sequence (Q03181 whole entry): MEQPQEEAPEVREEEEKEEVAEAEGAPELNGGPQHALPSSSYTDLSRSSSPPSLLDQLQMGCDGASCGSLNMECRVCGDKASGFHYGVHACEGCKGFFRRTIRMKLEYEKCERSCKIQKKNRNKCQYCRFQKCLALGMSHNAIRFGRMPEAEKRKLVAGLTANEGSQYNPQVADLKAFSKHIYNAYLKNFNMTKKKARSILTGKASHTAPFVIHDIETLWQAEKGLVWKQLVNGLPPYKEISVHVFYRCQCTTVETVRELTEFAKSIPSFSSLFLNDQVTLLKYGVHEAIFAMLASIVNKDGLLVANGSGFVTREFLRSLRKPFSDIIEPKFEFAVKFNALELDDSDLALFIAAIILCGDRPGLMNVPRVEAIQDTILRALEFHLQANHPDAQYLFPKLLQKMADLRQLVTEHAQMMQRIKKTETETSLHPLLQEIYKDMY

The target of assay [3] is T3, Peroxisome proliferator-activated receptor alpha (Homo sapiens, UniProt Q07869).
T3 sequence (Q07869 whole entry): T1 sequence (whole entry)
The assay can be described thus: Agonist activity at human PPARalpha by transactivation assay. It counts as functional.

Assay [4] has as its target T4, Peroxisome proliferator-activated receptor gamma (Homo sapiens, UniProt P37231).
T4 sequence (P37231 whole entry): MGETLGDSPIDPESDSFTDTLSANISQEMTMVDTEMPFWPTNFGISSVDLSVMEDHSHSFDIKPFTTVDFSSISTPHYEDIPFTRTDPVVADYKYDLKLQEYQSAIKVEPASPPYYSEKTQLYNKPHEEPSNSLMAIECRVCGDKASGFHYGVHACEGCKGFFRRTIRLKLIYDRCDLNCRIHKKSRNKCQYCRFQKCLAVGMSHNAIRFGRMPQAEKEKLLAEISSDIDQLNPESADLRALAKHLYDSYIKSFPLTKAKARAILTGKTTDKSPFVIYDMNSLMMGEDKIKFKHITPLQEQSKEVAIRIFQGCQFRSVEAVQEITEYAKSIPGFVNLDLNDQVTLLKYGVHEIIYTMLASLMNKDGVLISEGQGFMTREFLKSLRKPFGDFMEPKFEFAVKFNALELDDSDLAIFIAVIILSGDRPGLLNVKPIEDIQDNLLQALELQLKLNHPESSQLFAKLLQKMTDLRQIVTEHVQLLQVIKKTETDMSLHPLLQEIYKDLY
It counts as functional.

In turn, `Cc1cc(SCc2sc(-c3ccc(C(F)(F)F)cc3)nc2C)ccc1OCC(=O)O` displayed an Activity in assay [1] of 68%.

Regarding `O=C(O)COc1ccc(Sc2cc(C#CCN3CCOCC3)nc(C#Cc3ccc(C(F)(F)F)cc3)c2)c2c1CCC2`, in assay [1], the Activity was below 10%. In addition, the EC50 in assay [2] was determined as 130 nM.

Regarding `Cc1cc(Sc2cc(C#CCN3CCOCC3)nc(C#Cc3ccc(C(F)(F)F)cc3)c2)ccc1OCC(=O)O`, the EC50 in assay [3] is 100 nM; in assay [4] it was 5.5 µM; in assay [2], 50 nM. In assay [1], this compound displayed an Activity of 50%.

Values taken from ChEMBL document CHEMBL1140646, “Design of a partial PPARdelta agonist” (Bioorg Med Chem Lett, 2007).
